{
  "source": "the METLIN SMRT retention time set (Domingo-Almenara et al. 2019)",
  "data": [
    {"assay": "gradient 5% acetonitrile 3 min, to 50% in 2 min, to 85% in 15 min, held 3 min, 100 µL/min", "settings": "column: Zorbax Extend-C18 2.1 x 50 mm; eluents: water / acetonitrile, 0.1% formic acid", "outline": "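In both positive and negative ionization mode, a quadrupole time-of-flight mass spectrometer coupled to HPLC analyzed pure standards run in mixtures of ~100 molecules. The Zorbax Extend-C18 column (2.1 × 50 mm, 1.8 μm) was operated at 100 μL/min with water and acetonitrile, each containing 0.1% formic acid. The dead volume was 40 μL and the dwell volume 900 μL. Retention time came from adduct peaks that were computationally picked and individually inspected by hand.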", "units": {"RP-LC retention time": "s"}, "values": [
      {"smiles": "O=C(NCc1ccccc1Cl)C1CCN(C(=O)c2ncn3c2COC(c2ccccc2)C3)CC1", "note": "(stereo not drawn)", "RP-LC retention time": 786},
      {"smiles": "CCCCCn1c(=O)c2ccccc2n(Cc2nc(-c3cc(OC)cc(OC)c3)no2)c1=O", "RP-LC retention time": 1270},
      {"smiles": "COc1ccc(Nc2ncc(C(=O)O)c3ccccc23)cc1", "RP-LC retention time": 599},
      {"smiles": "Cc1cc(C)n(-c2nc(C)c(C(=O)N3CCc4ccccc4C3)s2)n1", "RP-LC retention time": 1090},
      {"smiles": "Cc1noc(C)c1CNC(=O)c1ccccn1", "RP-LC retention time": 648},
      {"smiles": "COc1cc(Nc2nc(-c3nnn(-c4ccc(Br)cc4F)c3C)ns2)cc(OC)c1", "RP-LC retention time": 1120},
      {"smiles": "COC(=O)c1cc2c(=O)n(-c3nc(-c4ccc(Cl)cc4)cs3)ccc2nc1C", "RP-LC retention time": 1420},
      {"smiles": "CC1(C)CS(=O)(=O)N(c2ccc(C(=O)N3CCN(c4ccccn4)CC3)cc2)C1=O", "RP-LC retention time": 608},
      {"smiles": "COC(=O)c1ccc(CSc2nnc(N3CCN(c4ccccc4OC)CC3)s2)o1", "RP-LC retention time": 894},
      {"smiles": "Cc1nc(-c2ccc3c(c2)n(CC(=O)NC2CCCCCCC2)c(=O)n3C(C)C)no1", "RP-LC retention time": 945},
      {"smiles": "O=C(CNC(=O)C1CCCCC1)Nc1ccc(S(=O)(=O)Nc2ccccc2Cl)cc1", "RP-LC retention time": 792},
      {"smiles": "CC(=O)N1CCCSc2ccc(S(=O)(=O)N3CCN(c4cc(Cl)ccc4C)CC3)cc21", "RP-LC retention time": 1180},
      {"smiles": "O=C(NC1CC1)C1CCN(S(=O)(=O)c2cc(-c3noc(C4CC4)n3)cs2)CC1", "RP-LC retention time": 790},
      {"smiles": "O=P(O)(O)c1cc(-c2ccccc2)oc1-c1ccccc1", "RP-LC retention time": 852},
      {"smiles": "COC(=O)c1ccc2c(=O)n(Cc3ccc(F)cc3)c(N3CCCCC3)nc2c1", "RP-LC retention time": 1210},
      {"smiles": "O=C(Cn1nc2n(c1=O)CCCC2)Nc1cccc(Cl)c1", "RP-LC retention time": 662},
      {"smiles": "O=C(Cn1ccn2nc(-c3ccc(Cl)cc3)cc2c1=O)N1CCCc2ccccc21", "RP-LC retention time": 1080},
      {"smiles": "CCSc1nnc(-c2nn(C)c3c2CN(C(=O)c2ccccc2C)CC3)n1C", "RP-LC retention time": 734},
      {"smiles": "Cc1cc(=O)n(CC(=O)NCc2ccc(F)cc2F)c(N)n1", "RP-LC retention time": 596},
      {"smiles": "COc1cc(C(=O)NC2C=CS(=O)(=O)C2)cc(OC)c1OC", "note": "(stereo not drawn)", "RP-LC retention time": 615},
      {"smiles": "CCOC(=O)C(=O)NCc1nnnn1C1CCCCC1", "RP-LC retention time": 655},
      {"smiles": "O=S(=O)(c1ccccc1Cl)N1CCC(c2noc(COCc3ccccc3)n2)CC1", "RP-LC retention time": 1100},
      {"smiles": "CCOc1ccc(-c2cc3n(n2)CCCN(C(C)=O)C3)cc1", "RP-LC retention time": 637},
      {"smiles": "O=C(Nc1ccc(F)cc1)C(=O)c1cn(CC(=O)N2CCCC2)c2ccccc12", "RP-LC retention time": 954},
      {"smiles": "Cc1noc(C)c1C1CCCN1C(=O)Cc1ccc(Cl)cc1", "note": "(stereo not drawn)", "RP-LC retention time": 809},
      {"smiles": "CN(CCc1noc(COc2ccc(F)cc2)n1)C(=O)c1ccc(F)cc1", "RP-LC retention time": 878},
      {"smiles": "COC(=O)c1cnc2nc(C)ccc2c1Nc1ccc(F)cc1F", "RP-LC retention time": 674},
      {"smiles": "C=CCn1c(C)c(CC(=O)NCCCC)c(=O)n2nc(-c3ccccc3)nc12", "RP-LC retention time": 818},
      {"smiles": "Cc1ccc(-c2nnc(N3CCC(C(=O)N4CCN(C5CCCCC5)CC4)CC3)o2)cc1", "RP-LC retention time": 644},
      {"smiles": "Brc1ccc(OCc2nn3c(-c4ccccn4)nnc3s2)cc1", "RP-LC retention time": 872},
      {"smiles": "COc1cc(C(=O)N2CCC3(CC2)Nc2ccccc2-n2cccc23)cc(OC)c1OC", "RP-LC retention time": 902},
      {"smiles": "CCn1c(=O)c(C(=O)NCc2cccnc2)nc2cccnc21", "RP-LC retention time": 555},
      {"smiles": "Cc1ccc(-c2nnc(-c3ccccc3Cl)o2)cc1S(=O)(=O)N1CCOCC1", "RP-LC retention time": 969},
      {"smiles": "Cc1ccc2[nH]cc(CCN3CC(C(=O)Nc4ccc5c(c4)OCCO5)CC3=O)c2c1", "note": "(stereo not drawn)", "RP-LC retention time": 777},
      {"smiles": "CCOc1cc(C(=O)N2CCCC(C)(C(=O)NCc3ccc(F)cc3)C2)cc(OCC)c1OCC", "note": "(stereo not drawn)", "RP-LC retention time": 978},
      {"smiles": "COc1cc2c(cc1OC)C(C(=O)NCCCN1CCC(C)CC1)C1c3ccccc3CCN1C2=O", "note": "(stereo not drawn)", "RP-LC retention time": 624},
      {"smiles": "O=C(Nc1c(-c2ccccc2)nc2ccccn12)c1ccc([N+](=O)[O-])cc1", "RP-LC retention time": 654},
      {"smiles": "COc1ccc(-c2ncccc2CNS(=O)(=O)c2cc(C)cc(C)c2)cc1", "RP-LC retention time": 717},
      {"smiles": "Cc1nc(-c2noc(-c3ccccc3)n2)cn1CC(=O)Nc1ccc(F)c(Cl)c1", "RP-LC retention time": 917},
      {"smiles": "O=C1NC(C(=O)Nc2ccc(F)c(F)c2)Cn2cccc21", "note": "(stereo not drawn)", "RP-LC retention time": 693},
      {"smiles": "Cc1cc(N2C=C(C(=O)N3CCCC3)S(=O)(=O)c3ccc(F)cc32)ccc1F", "RP-LC retention time": 854},
      {"smiles": "CC(C)(CO)NC(=O)Cc1ccc(NC(=O)C2(c3ccc(F)cc3)CC2)cc1", "RP-LC retention time": 734},
      {"smiles": "O=C(Cc1csc2nc(-c3ccccc3)cn12)N1CCN(c2ccccc2)CC1", "RP-LC retention time": 820},
      {"smiles": "CCCCCn1c(=O)c2ccccc2n(Cc2nc(-c3cccc(Cl)c3)no2)c1=O", "RP-LC retention time": 1100},
      {"smiles": "Cc1ccc(CN2CC(=O)N(c3ccccc3)[C@@H]3CS(=O)(=O)C[C@@H]32)cc1", "RP-LC retention time": 800},
      {"smiles": "Cc1sc2ccn(CC(C)C)c(=O)c2c1C(=O)NCc1ccco1", "RP-LC retention time": 889},
      {"smiles": "O=C(c1cccs1)N1CCC(c2nncn2Cc2ccccc2)CC1", "RP-LC retention time": 673},
      {"smiles": "Cc1nn(-c2ccccc2)c(C)c1S(=O)(=O)N1CCN(c2ccccn2)CC1", "RP-LC retention time": 664},
      {"smiles": "Cc1cc(-c2cc(S(=O)(=O)NCCCOC(C)C)c(C)s2)n[nH]1", "RP-LC retention time": 770},
      {"smiles": "COCCCNC(=O)C1c2cc(OC)c(OC)cc2C(=O)N(C)C1c1cccs1", "note": "(stereo not drawn)", "RP-LC retention time": 676},
      {"smiles": "CC(C)C(=O)N1CCCCCNC(=O)[C@@H]2CCCC[C@@H]21", "RP-LC retention time": 700},
      {"smiles": "CC(NC(=O)c1ccc(-c2ccnc(N3CCCCC3)n2)cc1)c1cccnc1", "note": "(stereo not drawn)", "RP-LC retention time": 651},
      {"smiles": "Cc1csc(-c2cc(S(=O)(=O)NC3CC3)c(C)n2C)n1", "RP-LC retention time": 809},
      {"smiles": "O=C(CCn1nnc2cc(-c3noc(COc4ccc(Cl)cc4)n3)ccc21)N1CCOCC1", "RP-LC retention time": 866},
      {"smiles": "O=C(CCC(=O)N1CCN(C(c2ccccc2)c2ccccc2)CC1)Nc1noc2ccccc12", "RP-LC retention time": 718},
      {"smiles": "CC1CCN(C(=O)C2=NN(C)c3ccccc3S2(=O)=O)CC1", "RP-LC retention time": 799},
      {"smiles": "CCc1nc(-c2ccc(C(=O)NC)cc2)no1", "RP-LC retention time": 690},
      {"smiles": "Cc1ccc(NC(=O)Cn2c(C(C)C)nc3c(c2=O)CCN(Cc2ccccc2)C3)cc1F", "RP-LC retention time": 740},
      {"smiles": "O=C(NC1CCN(c2nnc3ccc(Cl)cn23)CC1)c1ccsc1", "RP-LC retention time": 602},
      {"smiles": "Cc1cc(-n2cc(C(=O)N3CCC(NC(=O)Cc4cccs4)CC3)nn2)ccc1F", "RP-LC retention time": 746},
      {"smiles": "CCOC(=O)c1cc(S(=O)(=O)N2CCCC2C(=O)Nc2cccc(SC)c2)cn1C", "note": "(stereo not drawn)", "RP-LC retention time": 995},
      {"smiles": "COCC(=O)N1CCCCCNC(=O)[C@@H]2CCCC[C@@H]21", "RP-LC retention time": 631},
      {"smiles": "COc1ccc(-c2cn3c(CC(=O)Nc4ccc(Br)c(C)c4)csc3n2)cc1", "RP-LC retention time": 914},
      {"smiles": "CCN(CC)C(=O)c1ccc2c(c1)N(CC(=O)NC1CCCCCC1)C(=O)CO2", "RP-LC retention time": 768},
      {"smiles": "CC(C)Cc1csc(-c2csc(S(=O)(=O)NCc3ccc(F)cc3F)c2)n1", "RP-LC retention time": 1160},
      {"smiles": "CCn1nnc2ccc(-c3noc(Cc4ccc(OC)c(OC)c4)n3)cc21", "RP-LC retention time": 864},
      {"smiles": "Cc1ccc(Cn2c(=O)n(CCNC(=O)c3cccn3C)c3ncccc32)cc1", "RP-LC retention time": 822},
      {"smiles": "CCCCN(C)C(=O)C1CCN(c2cc(Oc3ccc(CC)cc3)ncn2)CC1", "RP-LC retention time": 1060},
      {"smiles": "Cn1cnc2c(=O)oc3ccc(S(=O)(=O)N4CCN(c5ccccn5)CC4)cc3c21", "RP-LC retention time": 576},
      {"smiles": "COc1cc(-c2noc(Cn3cnc4c(cnn4-c4ccc(F)cc4)c3=O)n2)cc(OC)c1OC", "RP-LC retention time": 938},
      {"smiles": "CCN1C(=O)c2cccnc2Sc2cc(NC(=O)c3ccn(CC)n3)ccc21", "RP-LC retention time": 738},
      {"smiles": "Cc1cccc(CN2CCCn3nc(C(=O)NC4CCCC4)cc3C2=O)c1", "RP-LC retention time": 879},
      {"smiles": "Cc1ccc(-c2nc(-c3ccc4ncn(C)c4c3)no2)cc1C", "RP-LC retention time": 842},
      {"smiles": "Cn1cc(CCNS(=O)(=O)c2ccccc2C(F)(F)F)c2cccnc21", "RP-LC retention time": 764},
      {"smiles": "COc1ccc(C2C(C(=O)NCCCN3CCOCC3)c3cc(OC)c(OC)cc3C(=O)N2C)cc1", "note": "(stereo not drawn)", "RP-LC retention time": 612},
      {"smiles": "Cc1cc(C)cc(-n2c(CN3CCN(C(=O)Nc4ccc5c(c4)OCCO5)CC3)nc3cccnc32)c1", "RP-LC retention time": 693},
      {"smiles": "Cc1nc(-c2noc(-c3ccccc3)n2)cn1CC(=O)NCc1ccc(F)c(Cl)c1", "RP-LC retention time": 866},
      {"smiles": "Cc1ccc(NC(=O)C2CCCN(c3cc(=O)n(C)c(=O)n3C)C2)cc1C", "note": "(stereo not drawn)", "RP-LC retention time": 746},
      {"smiles": "COc1cccc(CC(=O)NC2CCN(c3cc(-c4ccccc4)[nH]n3)C2)c1", "note": "(stereo not drawn)", "RP-LC retention time": 673},
      {"smiles": "CCc1nc(-c2csc(S(=O)(=O)N3CCC(C(=O)Nc4cccc(C)n4)CC3)c2)no1", "RP-LC retention time": 838},
      {"smiles": "Cc1ccn(-c2cc(Cl)ccc2[C@@H](Oc2cc(-c3ccc(C[C@H](N)C(=O)O)cc3)nc(N)n2)C(F)(F)F)n1", "RP-LC retention time": 834},
      {"smiles": "CCN1C(=O)S/C(=C\\C(=O)O)C1=O", "RP-LC retention time": 638},
      {"smiles": "O=C(c1cnccn1)N1CCC(N2C(=O)C(O)C23CCCCC3)CC1", "note": "(stereo not drawn)", "RP-LC retention time": 590},
      {"smiles": "CCc1noc(NC(C)=O)c1-c1ccc(OC)c(S(=O)(=O)N2CCC(C)CC2)c1", "RP-LC retention time": 864},
      {"smiles": "O=C1CSc2ccc(S(=O)(=O)N3CCN(c4ccccn4)CC3)cc2N1", "RP-LC retention time": 604},
      {"smiles": "CCc1nc(-c2cccc(-c3noc(COc4ccc(F)cc4)n3)c2)cs1", "RP-LC retention time": 1290},
      {"smiles": "CC1=C(c2ccc(C(C)C)cc2)S(=O)(=O)N=C1N1CCC(NC(=O)C2CCOC2)CC1", "note": "(stereo not drawn)", "RP-LC retention time": 788},
      {"smiles": "CC(NC(=O)C1CCCN(c2cnc3nccnc3c2)C1)c1ccccn1", "note": "(stereo not drawn)", "RP-LC retention time": 565}
    ]}
  ]
}
